Assay results taken from article PMC5458179, “Oxidative DNA double strand breaks and autophagy in the antitumor effect of sterically hindered platinum(II) complexes in NSCLCs” (Oncotarget, 2017).
Read-outs that look alike come from different tables or passages of the source.

Tests used:
[1] = system: A549 cancer cells; test: Intracellular GSH measurement; assay type: cell-based, human; details: A549, 10 μM, 4 h
Procedure: After 4 h, medium was removed and dishes were rinsed three times with cold PBS. The cells were harvested and cell numbers were counted. Then, intracellular GSH levels were measured using a GSH test kit (KeyGen KGT006). A549 and NCI-H1299 cancer cells without treatment were used as control groups.

[2] = system: Herring sperm DNA; test: DNA platination by EtBr fluorescence; details: 0.01 mg/mL DNA, pH 7.4, 37°C, 24 h
Procedure: The better cytotoxicity of complex 3 owing to the DNA platination could be detected in the presence of EtBr as a probe via fluorescent measurements, because their DNA platination could prevent the formation of EtBr-DNA complex, resulting in its stoichiometric loss of fluorescence.
Herring sperm DNA was dissolved in 10 mM phosphate buffer (pH 7.4) containing 10 mM NaClO4. The DNA concentration was determined by UV-vis spectra at 260 nm with an extinction coefficient of 6600 M^−1. The mixture of DNA with platinum complexes were incubated at 37°C in the dark. The fluorescence was measured in 0.4 M NaCl to avoid the second fixation site of EtBr to DNA. EtBr (0.04 mg/mL) was added to the 0.01 mg/mL DNA solution before the fluorescence measurement. Fluorescence spectra were recorded under following conditions: scan speed 2000 nm min^−1; excitation slit width was 5 nm and emission slit width was 10 nm. The excitation and emission wavelength was 530 nm and 592 nm, respectively.

[3] = system: A549; test: MTT cytotoxicity assay; assay type: cell-based, human; details: 48 h drug exposure
Procedure: (§1) The results reveal that the steric hindrance plays a significant role in the cytotoxicity of complex 3.
(§2) The effects of complex 3 on the viability of NSCLC cancer cells including A549 and NCI-H1299 were detected respectively via MTT assays at time points of 12, 24, 48 and 72 h (Figure 2A). The results shown that complex 3 could inhibit the viability of the NSCLC cells.
(§3) Human cancer cell lines HepG2, SGC-7901, HCT-116, A549, NCI-H1299 and MCF-7 as well as normal liver cell line L02 were purchased from the Cell Bank of Shanghai Institute of Cell Biology. Among them, MCF-7, HepG2 cells were cultured at 37 °C in 5% CO2 with DMEM supplemented with 10% fetal bovine serum (FBS) (Hyclone, Lifescience, USA) and 1% penicillin/streptomycin (Beyotime, Nantong, China), while HCT-116, SGC-7901, A549, NCI-H1299 and L02 cells were cultured at 37 °C in 5% CO2 with RPMI-1640 supplemented with 10% FBS and 1% penicillin/streptomycin. Cells were passed every 2 days and restarted from frozen stocks upon reaching pass number 20.
(§4) In vitro cytotoxicity of the platinum compounds against human hepatocellular carcinoma (HepG-2), gastric carcinoma (SGC-7901), non-small-cell lung cancer (A549), and colorectal cancer (HCT-116) cell lines were measured by the MTT assays. Briefly, the cells were seeded in 96-well cultured plates at a density of 5000 cells/well. After overnight incubation (16 h), the cells were treated with the platinum complexes. After 48 h of incubation, 10 μL of a freshly diluted 3-(4,5-dimethyl-2-thiazolyl)-2,5-diphenyl-2H-tetrazolium bromide (MTT) solution (5 mg/mL) were added to each well and the plates were incubated at 37 °C in a humidified 5% CO2 atmosphere for 4 h. At the end of the incubation period the medium was removed and the formazan product was dissolved in 150 μL of DMSO. The cell viability was evaluated by measurement of the absorbance at 490 nm, using an Absorbance Reader (BioRad). IC50 values (compound concentration that produces 50% of cell growth inhibition) were calculated from curves constructed by plotting cell survival inhibitory rate (%) versus drug concentration logarithm. All experiments were repeated in three times. The reading values were converted to the percentage of control (% cell survival). Cytotoxic effects were expressed as IC50 values.

[4] = system: NCI-H1299; test: MTT cytotoxicity assay; assay type: cell-based, human
Procedure: as §1, §2, §3, §4

[5] = system: γ-H2AX; test: Nuclear γH2AX foci analysis; assay type: cell-based, human; details: A549, 8 h and 12 h
Source text: The serine 139-phosphorylated form of chromatin-associated histone H2AX, namely γ-H2AX, is a key marker of cellular response to DDR, particularly DSBs. […] Obviously, pre-treatment of NAC could considerably alleviate the DDR triggered by complex 3 (Figure 5B). Therefore, we came to a conclusion that complex 3 caused DDR especially DSBs in A549 cells, which might happen after the increased level of intracellular ROS. In order to reveal the mechanisms underlying the enhanced DNA damage, complex 3 was studied to learn whether it could reduce the activation of DNA repair response including the co-localization of DSB repair protein MDC1/Aprataxin within nucleus. […] In order to reveal the mechanisms underlying DNA damage, complex 3 was studied to detect whether it could suppress the activation of DNA single strand break repair via the phosphorylation of SSB repair mediator/adaptor proteins XRCC1 within nucleus.
For assessment of DSBs repair kinetics we detected the total nuclear volume for an average of 50–60 nuclei per time points and cell type. Briefly, A549 cells were grown to confluence in 35 mm petri-dishes with 0.17 mm glass bottom. […] Non-specific binding was blocked by incubation with 5% FCS/PBS/0.1% Triton X-100 for 1 h at RT. […] Numbers of γH2AX foci were counted in 50–60 nuclei and plotted over time as previously described.

[6] = 48 h drug exposure, read-out: IC50 NCI-H1299

SMILES	intracellular GSH levels [1]	DNA platination, change of EtBr fluorescent intensity [2]	IC50 [3] [µM]	IC50 ([4]; 24 h, 2 to 128 μM, read-out: IC50 NCI-H1299 exposed for 24 h) [µM]	IC50 [4, 6] [µM]	γ-H2AX [5]
CC(C)C[NH+]1[C@@H]2CCCC[C@H]2[NH+](CC(C)C)[Pt-2]12[O]C(=O)CC(=O)[O]2 (stereo partly drawn) [Complex 3]	did significantly reduce	more fluorescent intensity change compared to complex 3a	14.2 ± 1.22	7.42	20.9 ± 1.36	obvious increases in γ-H2AX
O=C1[O][Pt]2([NH][C@@H]3CCCC[C@H]3[NH]2)[O]C1=O [Oxaliplatin, oxaliplatin, reference compound]		a little loss of fluorescent intensity	112 ± 11.3		62.4 ± 2.35	
